Reference: US10597388B2, “Pyridazinone herbicides” (FMC CORPORATION, priority 2014, dated 2020)

Tests used:
Experiment in all cases: Test D controlled growth environment herbicide test, pre- and postemergence
Type in all cases: in vivo
[1] = test system: galium (catchweed bedstraw, Galium aparine)
In short: (§1)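 Rating is visual, 0–100 scale (100 = complete control), made against untreated plants 14–21 d after treatment in controlled growth conditions. Postemergence sprays went onto 1- to 4-leaf plants in peat medium; preemergence sprays onto silt loam after sowing; formulation included a surfactant.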

[2] = test system: bluegrass (annual bluegrass, Poa annua)
In short: as §1

[3] = test system: barley, winter (winter barley, Hordeum vulgare)
In short: as §1

[4] = test system: chamomile (scentless chamomile, Matricaria inodora)
In short: as §1

[5] = test system: mustard, wild (wild mustard, Sinapis arvensis)
In short: as §1

[6] = test system: radish, wild (wild radish, Raphanus raphanistrum)
In short: as §1

[7] = test system: speedwell (bird's-eye speedwell, Veronica persica)
In short: as §1

[8] = test system: field poppy (Papaver rhoeas)
In short: as §1

[9] = test system: oilseed rape (Brassica napus)
In short: as §1

[10] = test system: barley, spring (spring barley, Hordeum vulgare)
In short: as §1

[11] = test system: pigweed (Amaranthus retroflexus)
In short: as §1

[12] = test system: oat, wild (wild oat, Avena fatua)
In short: as §1

[13] = test system: buckwheat, wild (wild buckwheat, Polygonum convolvulus)
In short: as §1

[14] = Postemergence, 31 g ai/ha, scale 0 to 100 (0 no effect, 100 complete control)
[15] = Postemergence, 125 g ai/ha, visual rating on scale 0 (no effect) to 100 (complete control), 14 to 21 d
[16] = Postemergence, 250 g ai/ha, scale 0 to 100 (0 no effect, 100 complete control)
[17] = Preemergence, 125 g ai/ha, scale 0 to 100 (0 no effect, 100 complete control)
[18] = Preemergence, 250 g ai/ha, scale 0 to 100 (0 no effect, 100 complete control)
[19] = postemergence, 62 g ai/ha, scale 0 to 100, 0 no effect, 100 complete control
[20] = Preemergence, 62 g ai/ha, scale 0 to 100 (0 no effect, 100 complete control)

CCOC(=O)Oc1c(C)nn(C)c(=O)c1-c1c(C)sc2c(C)cc(C)cc12 [Compound 83]
Galium plant response rating [1, 14]: 100 | Plant response rating, Galium [1, 15]: 100 | Plant response rating, Galium [1, 16]: 100 | Plant response rating (scale of 0 to 100), Galium ([1]; Preemergence, 31 g ai/ha): 0 | Plant response rating (scale of 0 to 100), Galium ([1]; Preemergence, 62 g ai/ha): 25 | Plant response rating, Galium [1, 17]: 40 | Plant response rating, Galium [1, 18]: 85 | Plant response rating, Galium [1, 19]: 100 | Bluegrass plant response rating [2, 14]: 0 | Plant response rating, Bluegrass [2, 15]: 15 | Plant response rating, Bluegrass [2, 16]: 25 | Plant response rating (scale of 0 to 100), Bluegrass ([2]; Preemergence, 31 g ai/ha): 15 | Plant response rating, Bluegrass [2, 20]: 15 | Plant response rating, Bluegrass [2, 17]: 35 | Plant response rating, Bluegrass [2, 18]: 35 | Plant response rating, Bluegrass [2, 19]: 10 | Barley, Winter plant response rating [3, 14]: 0 | Plant response rating, Barley, Winter [3, 15]: 0 | Plant response rating, Barley, Winter [3, 16]: 15 | Plant response rating (scale of 0 to 100), Barley, Winter ([3]; Preemergence, 31 g ai/ha): 0 | Plant response rating, Barley, Winter [3, 20]: 0 | Plant response rating, Barley, Winter [3, 17]: 0 | Plant response rating, Barley, Winter [3, 18]: 40 | Plant response rating, Barley, Winter [3, 19]: 0 | Chamomile plant response rating [4, 14]: 95 | Plant response rating, Chamomile [4, 15]: 100 | Plant response rating, Chamomile [4, 16]: 100 | Plant response rating, Chamomile [4, 19]: 100 | Mustard, Wild plant response rating [5, 14]: 25 | Plant response rating, Mustard, Wild [5, 15]: 65 | Plant response rating, Mustard, Wild [5, 16]: 70 | Plant response rating (scale of 0 to 100), Mustard, Wild ([5]; Preemergence, 31 g ai/ha): 0 | Plant response rating (scale of 0 to 100), Mustard, Wild ([5]; Preemergence, 62 g ai/ha): 0 | Plant response rating, Mustard, Wild [5, 17]: 35 | Plant response rating, Mustard, Wild [5, 18]: 25 | Plant response rating, Mustard, Wild [5, 19]: 25 | Radish, Wild plant response rating [6, 14]: 75 | Plant response rating, Radish, Wild [6, 15]: 100 | Plant response rating, Radish, Wild [6, 16]: 100 | Plant response rating (scale of 0 to 100), Radish, Wild ([6]; Preemergence, 31 g ai/ha): 30 | Plant response rating (scale of 0 to 100), Radish, Wild ([6]; Preemergence, 62 g ai/ha): 70 | Plant response rating, Radish, Wild [6, 17]: 90 | Plant response rating, Radish, Wild [6, 18]: 90 | Plant response rating, Radish, Wild [6, 19]: 90 | Speedwell plant response rating [7, 14]: 65 | Plant response rating, Speedwell [7, 15]: 75 | Plant response rating, Speedwell [7, 16]: 100 | Plant response rating (scale of 0 to 100), Speedwell ([7]; Preemergence, 31 g ai/ha): 70 | Plant response rating (scale of 0 to 100), Speedwell ([7]; Preemergence, 62 g ai/ha): 75 | Plant response rating, Speedwell [7, 17]: 100 | Plant response rating, Speedwell [7, 18]: 100 | Plant response rating, Speedwell [7, 19]: 70 | Field Poppy plant response rating [8, 14]: 100 | Plant response rating, Field Poppy [8, 15]: 100 | Plant response rating, Field Poppy [8, 16]: 100 | Plant response rating (scale of 0 to 100), Field Poppy ([8]; Preemergence, 31 g ai/ha): 100 | Plant response rating (scale of 0 to 100), Field Poppy ([8]; Preemergence, 62 g ai/ha): 100 | Plant response rating, Field Poppy [8, 17]: 100 | Plant response rating, Field Poppy [8, 18]: 100 | Plant response rating, Field Poppy [8, 19]: 100 | Oilseed Rape plant response rating [9, 14]: 65 | Plant response rating, Oilseed Rape [9, 15]: 75 | Plant response rating, Oilseed Rape [9, 16]: 95 | Plant response rating (scale of 0 to 100), Oilseed Rape ([9]; Preemergence, 31 g ai/ha): 5 | Plant response rating (scale of 0 to 100), Oilseed Rape ([9]; Preemergence, 62 g ai/ha): 5 | Plant response rating, Oilseed Rape [9, 17]: 10 | Plant response rating, Oilseed Rape [9, 18]: 10 | Plant response rating, Oilseed Rape [9, 19]: 70 | Barley, Spring plant response rating [10, 14]: 0 | Plant response rating, Barley, Spring [10, 15]: 5 | Plant response rating, Barley, Spring [10, 16]: 10 | Plant response rating (scale of 0 to 100), Barley, Spring ([10]; Preemergence, 31 g ai/ha): 0 | Plant response rating, Barley, Spring [10, 20]: 0 | Plant response rating, Barley, Spring [10, 17]: 0 | Plant response rating, Barley, Spring [10, 18]: 5 | Plant response rating, Barley, Spring [10, 19]: 5 | Pigweed plant response rating [11, 14]: 100 | Plant response rating, Pigweed [11, 15]: 100 | Plant response rating, Pigweed [11, 16]: 100 | Plant response rating (scale of 0 to 100), Pigweed ([11]; Preemergence, 31 g ai/ha): 100 | Plant response rating (scale of 0 to 100), Pigweed ([11]; Preemergence, 62 g ai/ha): 100 | Plant response rating, Pigweed [11, 17]: 100 | Plant response rating, Pigweed [11, 18]: 100 | Plant response rating, Pigweed [11, 19]: 100 | Oat, Wild plant response rating [12, 14]: 80 | Plant response rating, Oat, Wild [12, 15]: 90 | Plant response rating, Oat, Wild [12, 16]: 95 | Plant response rating (scale of 0 to 100), Oat, Wild ([12]; Preemergence, 31 g ai/ha): 80 | Plant response rating (scale of 0 to 100), Oat, Wild ([12]; Preemergence, 62 g ai/ha): 85 | Plant response rating, Oat, Wild [12, 17]: 90 | Plant response rating, Oat, Wild [12, 18]: 90 | Plant response rating, Oat, Wild [12, 19]: 85 | Buckwheat, Wild plant response rating [13, 14]: 100 | Plant response rating, Buckwheat, Wild [13, 15]: 100 | Plant response rating, Buckwheat, Wild [13, 16]: 100 | Plant response rating (scale of 0 to 100), Buckwheat, Wild ([13]; Preemergence, 31 g ai/ha): 0 | Plant response rating, Buckwheat, Wild [13, 20]: 0 | Plant response rating, Buckwheat, Wild [13, 17]: 0 | Plant response rating, Buckwheat, Wild [13, 18]: 25 | Plant response rating, Buckwheat, Wild [13, 19]: 100
